Some results are limits rather than exact numbers.

The values that follow come from patent US20110201818A1, “POLO-LIKE KINASE INHIBITORS” (TAKEDA PHARMACEUTICAL COMPANY LIMITED, priority 2007, published 2011).

T1 sequence (P53350 with tags, fused parts or gaps): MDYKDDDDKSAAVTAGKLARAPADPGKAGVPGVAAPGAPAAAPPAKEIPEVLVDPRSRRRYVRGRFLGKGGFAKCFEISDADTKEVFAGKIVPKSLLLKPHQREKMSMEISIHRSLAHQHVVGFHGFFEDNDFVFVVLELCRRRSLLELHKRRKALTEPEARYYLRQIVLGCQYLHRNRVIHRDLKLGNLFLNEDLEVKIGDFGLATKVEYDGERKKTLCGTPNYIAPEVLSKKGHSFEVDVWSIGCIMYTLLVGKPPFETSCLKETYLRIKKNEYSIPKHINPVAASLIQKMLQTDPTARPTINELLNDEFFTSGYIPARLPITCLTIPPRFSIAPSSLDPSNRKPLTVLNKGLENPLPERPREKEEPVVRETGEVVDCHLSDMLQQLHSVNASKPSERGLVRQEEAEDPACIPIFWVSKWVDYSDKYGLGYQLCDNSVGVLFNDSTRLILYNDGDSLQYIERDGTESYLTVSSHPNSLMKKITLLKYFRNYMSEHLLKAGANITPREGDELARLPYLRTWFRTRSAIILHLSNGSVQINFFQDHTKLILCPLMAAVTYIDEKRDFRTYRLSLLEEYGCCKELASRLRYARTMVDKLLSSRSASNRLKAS

One experiment has as its target T1, human PLK1 (Homo sapiens, UniProt P53350).
T1 construct: FLAG (DYKDDDDK) (N); made in house; host or cells: Sf21 insect cells, recombinant baculovirus (pFASTBAC1, Bac-to-Bac)
The experiment is described as follows: PLK1 in vitro enzymatic activity assay (phosphorylation of alpha casein by recombinant PLK1).
Settings: not given
Type of experiment: biochemical. As to the method: PCR was performed using the vector as a template. […] After XbaI and XhoI digestion of the PCR product, the fragment was subcloned into pFASTBAC1 (Invitrogen, USA). Recombinant baculoviruses were prepared according to the procedure of the Bac-to-Bac baculovirus expression system (Invitrogen, USA). Sf21 cells were purchased from Invitrogen and grown in Sf-900 II SFM medium containing 10% fetal bovine serum, 50 μg/mL gentamicin and 0.1% pluronic F-68 (Invitrogen, USA) at 28° C. For preparation of PLK1 enzyme, Sf21 cells were infected with recombinant baculoviruses and cultured at 28° C. for 72 h.
The inhibition of PLK1 by the compounds was determined with the following assay that measures the phosphorylation of alpha casein by recombinant PLK1. Kinase reactions were performed at room temperature for 40 min in the kinase reaction buffer (25 mmol/L HEPES, pH 7.5, 10 mmol/L magnesium acetate, 1 mmol/L dithiothreitol) containing 50 ng PLK1 enzyme, 0.1 μCi [γ-^32P]ATP, 500 nmol/L ATP and 3 μg alpha casein (MP Biomedicals Inc., USA) in a final volume of 50 μL. The incubation was terminated by the addition of 10% trichloroacetic acid (Wako, Japan). Phosphorylated proteins were filtrated in GF/C filter plates (Packard, USA) with a Cell harvester (Packard, USA) and washed out free [γ-^32P]-ATP with 250 mmol/L phosphoric acid. Then, the plates were air dried for 60 min at 45° C., followed by the addition of 20 μL of MicroScint-O (Packard, USA). The radioactivity was counted by a Top-count scintillation counter (Packard, USA).
On to `CCN1CCN(NC(=O)c2ccc(Nc3ncc4c(n3)N(C3CCCCC3)CC(F)(F)C(=O)N4C)c(OC)c2)CC1` [Compound 78, 4-(9-cyclohexyl-7,7-difluoro-5-methyl-6-oxo-6,7,8,9-tetrahydro-5H-pyrimido[4,5-b][1,4]diazepin-2-ylamino)-N-(4-ethylpiperazin-1-yl)-3-methoxybenzamide], for which the IC50 is at most 2 nM.

The experiment is the same for the next values; noted with them: recombinant FLAG-tagged PLK1, alpha casein substrate, 500 nmol/L ATP, 40 min at room temperature; read-out: pIC50 (PLK1) (converted).
As to `C=C[C@@]1(F)CN(C2CCCC2)c2nc(Nc3ccc(C(=O)N[C@@H]4CCCNC4)cc3OC)ncc2N(C)C1=O` [Compound 107, 4-((R)-9-cyclopentyl-7-fluoro-5-methyl-6-oxo-7-vinyl-6,7,8,9-tetrahydro-5H-pyrimido[4,5-b][1,4]diazepin-2-ylamino)-3-methoxy-N—((R)-piperidin-3-yl)benzamide], the IC50 is over 2 nM. On to `COc1cc(C(=O)NC[C@H](C)O)ccc1Nc1ncc2c(n1)N(C1CCCCC1)CC(F)(F)C(=O)N2C` [Compound 63, (S)-4-(9-cyclohexyl-7,7-difluoro-5-methyl-6-oxo-6,7,8,9-tetrahydro-5H-pyrimido[4,5-b][1,4]diazepin-2-ylamino)-N-(2-hydroxypropyl)-3-methoxybenzamide], for which the IC50 was at most 2 nM. With `C=C[C@@]1(F)CN(C2CCCC2)c2nc(Nc3ccc(C(=O)NC4CCN(CCO)CC4)cc3OC)ncc2N(C)C1=O` [Compound 106, (R)-4-(9-cyclopentyl-7-fluoro-5-methyl-6-oxo-7-vinyl-6,7,8,9-tetrahydro-5H-pyrimido[4,5-b][1,4]diazepin-2-ylamino)-N-(1-(2-hydroxyethyl)piperidin-4-yl)-3-methoxybenzamide], the IC50 was over 2 nM. Turning to `COc1cc(C(=O)NC2CCN(C(=O)CN(C)C)CC2)c(F)cc1Nc1ncc2c(n1)N(C1CCCC1)CC(F)(F)C(=O)N2C` [Compound 118, 4-(9-Cyclopentyl-7,7-difluoro-5-methyl-6-oxo-6,7,8,9-tetrahydro-5H-pyrimido[4,5-b][1,4]diazepin-2-ylamino)-N-(1-(2-(dimethylamino)acetyl)piperidin-4-yl)-2-fluoro-5-methoxybenzamide], the IC50 was over 2 nM. With `COc1cc(C(=O)NC2CN(C3CCCC3)C2)c(F)cc1Nc1ncc2c(n1)N(C1CCCC1)CC(F)(F)C(=O)N2C` [Compound 133, 4-(9-cyclopentyl-7,7-difluoro-5-methyl-6-oxo-6,7,8,9-tetrahydro-5H-pyrimido[4,5-b][1,4]diazepin-2-ylamino)-N-(1-cyclopentylazetidin-3-yl)-2-fluoro-5-methoxybenzamide], the IC50 was at most 2 nM. `COc1cc(C(=O)N2CCN(C)CC2)ccc1Nc1ncc2c(n1)N(C1CCCCC1)CC(F)(F)C(=O)N2C` [Compound 57, 9-cyclohexyl-7,7-difluoro-2-(2-methoxy-4-(4-methylpiperazine-1-carbonyl)-phenylamino)-5-methyl-8,9-dihydro-5H-pyrimido[4,5-b][1,4]diazepin-6(7H)-one]: the IC50 is over 2 nM. Consider `CN1CCC(NC(=O)c2ccc(Nc3ncc4c(n3)N(C3CCCC3)CC(F)(F)C(=O)N4C)c(Cl)c2)CC1` [Compound 24, 3-Chloro-4-(9-cyclopentyl-7,7-difluoro-5-methyl-6-oxo-6,7,8,9-tetrahydro-5H-pyrimido[4,5-b][1,4]diazepin-2-ylamino)-N-(1-methylpiperidin-4-yl)benzamide], for which the IC50 was over 2 nM. Consider `CCC1(F)CN(C2CCCCC2)c2nc(Nc3ccc(C(=O)NC4CCN(C)CC4)cc3OC)ncc2N(C)C1=O` (stereo not shown) [Compound 96, 4-(9-Cyclohexyl-7-ethyl-7-fluoro-5-methyl-6-oxo-6,7,8,9-tetrahydro-5H-pyrimido[4,5-b][1,4]diazepin-2-ylamino)-3-methoxy-N-(1-methylpiperidin-4-yl)benzamide], for which the IC50 was over 2 nM. Still for that read-out and setting: as for `C=CC1(F)CN(C2CCCC2)c2nc(Nc3ccc(C(=O)NC4CN(C)C4)cc3OC)ncc2N(C)C1=O` (stereo not shown) [Compound 100, 4-(9-cyclopentyl-7-fluoro-5-methyl-6-oxo-7-vinyl-6,7,8,9-tetrahydro-5H-pyrimido[4,5-b][1,4]diazepin-2-ylamino)-3-methoxy-N-(1-methylazetidin-3-yl)benzamide], the figure is at most 2 nM.

Take `COc1cc(C(=O)N[C@@H]2CCCN(C)C2)ccc1Nc1ncc2c(n1)N(C1CCCCC1)CC(F)(F)C(=O)N2C` [Compound 75, (R)-4-(9-cyclohexyl-7,7-difluoro-5-methyl-6-oxo-6,7,8,9-tetrahydro-5H-pyrimido[4,5-b][1,4]diazepin-2-ylamino)-3-methoxy-N-(1-methylpiperidin-3-yl)benzamide]: the IC50 was at most 2 nM. For the compound `COc1cc(C(=O)NC2CC3CCC(C2)N3C)ccc1Nc1ncc2c(n1)N(C1CCCCC1)CC(F)(F)C(=O)N2C` (stereo not shown) [Compound 51, 4-(9-cyclohexyl-7,7-difluoro-5-methyl-6-oxo-6,7,8,9-tetrahydro-5H-pyrimido[4,5-b][1,4]diazepin-2-ylamino)-3-methoxy-N-(8-methyl-8-azabicyclo[3.2.1]octan-3-yl)benzamide], the IC50 was at most 2 nM. For `COc1cc(C(=O)NN2CCNCC2)ccc1Nc1ncc2c(n1)N(C1CCCCC1)CC(F)(F)C(=O)N2C` [Compound 77, 4-(9-cyclohexyl-7,7-difluoro-5-methyl-6-oxo-6,7,8,9-tetrahydro-5H-pyrimido[4,5-b][1,4]diazepin-2-ylamino)-3-methoxy-N-(piperazin-1-yl)benzamide], the IC50 was at most 2 nM. Regarding `COc1cc(C(=O)NC2CNC2)c(F)cc1Nc1ncc2c(n1)N(C1CCCC1)CC(F)(F)C(=O)N2C` [Compound 130, N-(azetidin-3-yl)-4-(9-cyclopentyl-7,7-difluoro-5-methyl-6-oxo-6,7,8,9-tetrahydro-5H-pyrimido[4,5-b][1,4]diazepin-2-ylamino)-2-fluoro-5-methoxybenzamide], the IC50 is at most 2 nM.

For the compound `CCN1CCC(NC(=O)c2ccc(Nc3ncc4c(n3)N(C3CCCCC3)CC(F)(F)C(=O)N4C)c(OC)c2)CC1` [Compound 36, 4-(9-cyclohexyl-7,7-difluoro-5-methyl-6-oxo-6,7,8,9-tetrahydro-5H-pyrimido[4,5-b][1,4]diazepin-2-ylamino)-N-(1-ethylpiperidin-4-yl)-3-methoxybenzamide], the IC50 is at most 2 nM. The same measure, in the same setting: as for `COc1cc(C(=O)N[C@@H]2CCCNC2)ccc1Nc1ncc2c(n1)N(C1CCCCC1)CC(F)(F)C(=O)N2C` [Compound 38, (R)-4-(9-cyclohexyl-7,7-difluoro-5-methyl-6-oxo-6,7,8,9-tetrahydro-5H-pyrimido[4,5-b][1,4]diazepin-2-ylamino)-3-methoxy-N-(piperidin-3-yl)benzamide], the figure is at most 2 nM; as for `COc1cc(C(=O)NN2CCN(CC3CC3)CC2)ccc1Nc1ncc2c(n1)N(C1CCCCC1)CC(F)(F)C(=O)N2C` [Compound 80, 4-(9-cyclohexyl-7,7-difluoro-5-methyl-6-oxo-6,7,8,9-tetrahydro-5H-pyrimido[4,5-b][1,4]diazepin-2-ylamino)-N-(4-(cyclopropylmethyl)piperazin-1-yl)-3-methoxybenzamidemethoxybenzamide], at most 2 nM; as for `COc1cc(C(=O)N[C@@H]2CN3CCC2CC3)ccc1Nc1ncc2c(n1)N(C1CCCCC1)CC(F)(F)C(=O)N2C` [Compound 46, (S)-4-(9-cyclohexyl-7,7-difluoro-5-methyl-6-oxo-6,7,8,9-tetrahydro-5H-pyrimido[4,5-b][1,4]diazepin-2-ylamino)-3-methoxy-N-(quinuclidin-3-yl)benzamide], over 2 nM.

In the case of `CCC1(F)CN(C2CCCCC2)c2nc(Nc3ccc(C(=O)NC4CN(C)C4)cc3OC)ncc2N(C)C1=O` (stereo not shown) [Compound 97, 4-(9-Cyclohexyl-7-ethyl-7-fluoro-5-methyl-6-oxo-6,7,8,9-tetrahydro-5H-pyrimido[4,5-b][1,4]diazepin-2-ylamino)-3-methoxy-N-(1-methylazetidin-3-yl)benzamide], the IC50 was over 2 nM.

Take `CCOc1cc(C(=O)NC2CCN(C)CC2)ccc1Nc1ncc2c(n1)N(C1CCCC1)CC(F)(F)C(=O)N2C` [Compound 29, 4-(9-Cyclopentyl-7,7-difluoro-5-methyl-6-oxo-6,7,8,9-tetrahydro-5H-pyrimido[4,5-b][1,4]diazepin-2-ylamino)-3-ethoxy-N-(1-methylpiperidin-4-yl)benzamide]: the IC50 is over 2 nM. Take `COc1cc(C(=O)NC2CCN(CCO)CC2)ccc1Nc1ncc2c(n1)N(C1CCCC1)CC(F)(F)C(=O)N2C` [Compound 5, 4-(9-cyclopentyl-7,7-difluoro-5-methyl-6-oxo-6,7,8,9-tetrahydro-5H-pyrimido[4,5-b][1,4]diazepin-2-ylamino)-N-(1-(2-hydroxyethyl)piperidin-4-yl)-3-methoxybenzamide]: the IC50 was at most 2 nM. Turning to `CCN1CCC(NC(=O)c2ccc(Nc3ncc4c(n3)N(C3CCCC3)CC(F)(F)C(=O)N4C)c(OC)c2)CC1` [Compound 7, 4-(9-cyclopentyl-7,7-difluoro-5-methyl-6-oxo-6,7,8,9-tetrahydro-5H-pyrimido[4,5-b][1,4]diazepin-2-ylamino)-N-(1-ethylpiperidin-4-yl)-3-methoxybenzamide], the IC50 was over 2 nM.
